{"source": "BindingDB's records for doi:10.1021/jm960573f", "about": "(University of Washington, 1997)", "note": "Where “and” joins values, the source holds several entries; their conditions need not be identical. Equal entries are not always repeated."}
{"experiment": "Binding affinity was determined in a crude membrane preparation from guinea pig brain by displacement of [3H]DPDPE from Opioid receptor delta 1"}
{"smiles": "O=C1/C(=C/c2ccccc2)C[C@@]2(O)[C@H]3Cc4ccc(O)c5c4[C@@]2(CCN3CC2CC2)[C@H]1O5", "note": "[7-Benzylidenenaltrexone]", "Ki": "6.2 nM"}
{"smiles": "O=C1/C(=C\\c2ccccc2)C[C@@]2(O)[C@H]3Cc4ccc(O)c5c4[C@@]2(CCN3CC2CC2)[C@H]1O5", "Ki": "3.7 nM"}
{"smiles": "O=C1C(=Cc2ccc3ccccc3c2)C[C@@]2(O)[C@H]3Cc4ccc(O)c5c4C2(CCN3CC2CC2)[C@H]1O5", "note": "[4-cyclopropylmethyl-10,17-dihydroxy-15-[1-(2-naphthyl)-(E)-methylidene]-(5R,13R,17S)-12-oxa-4-azapentacyclo[9.6.1.01,13.05,17.07,18]octadeca-7(18),8,10-trien-14-one]", "Ki": "39 nM"}
{"smiles": "O=C1C(=Cc2ccc(-c3ccccc3)cc2)C[C@@]2(O)[C@H]3Cc4ccc(O)c5c4C2(CCN3CC2CC2)[C@H]1O5", "Ki": "75 nM and 47 nM"}
{"smiles": "O=C1C(=Cc2cccc3ccccc23)C[C@@]2(O)[C@H]3Cc4ccc(O)c5c4C2(CCN3CC2CC2)[C@H]1O5", "note": "[4-cyclopropylmethyl-10,17-dihydroxy-15-[1-(1-naphthyl)-(Z)-methylidene]-(5R,13R,17S)-12-oxa-4-azapentacyclo[9.6.1.01,13.05,17.07,18]octadeca-7(18),8,10-trien-14-one]", "Ki": "4.6 nM and 0.7 nM"}
{"smiles": "O=C1C(=Cc2c3ccccc3cc3ccccc23)C[C@@]2(O)[C@H]3Cc4ccc(O)c5c4C2(CCN3CC2CC2)[C@H]1O5", "Ki": "2.4 nM and 17 nM"}
